The values that follow come from US12247033B2, “Triazole-substituted imidazo[1,2-a]pyrimidines as cGAS inhibitors” (GlaxoSmithKline Intellectual Property Development Limited, priority 2022, dated 2025).

One assay concerns the target human CGAS (157-522) (Homo sapiens, UniProt Q8N884). Nature of the assay: biochemical.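 Note: biochemical enzyme reaction, 2′3′-cGAMP product measured by RapidFire mass spectrometry (MRM) normalised to c-di-UMP internal standard, inhibition of product formation relative to high and low control wells.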
The subject of another assay is CGAS. Put plainly: CGAS whole blood cytokine release assay (384-well, BacMam stimulation, IP-10 by cytometric bead array). The class given is cell-based. Conditions: Homo sapiens, 6 h; read-out: hWB pXC50 (converted). A digest of the protocol: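 Heparinised human donor whole blood mixed with serially diluted compound plus Null BacMam stimulus, incubated 6 h at 37° C, 5% CO2. Supernatant IP-10 quantified by cytometric bead array on flow cytometer (488 nm excitation, 585/40 nm emission); inhibition of IP-10 calculated.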

Structures are written as SMILES. Structures can show the parent of a compound that is named as a salt.

human CGAS (157-522), sequence (Q8N884 157-522): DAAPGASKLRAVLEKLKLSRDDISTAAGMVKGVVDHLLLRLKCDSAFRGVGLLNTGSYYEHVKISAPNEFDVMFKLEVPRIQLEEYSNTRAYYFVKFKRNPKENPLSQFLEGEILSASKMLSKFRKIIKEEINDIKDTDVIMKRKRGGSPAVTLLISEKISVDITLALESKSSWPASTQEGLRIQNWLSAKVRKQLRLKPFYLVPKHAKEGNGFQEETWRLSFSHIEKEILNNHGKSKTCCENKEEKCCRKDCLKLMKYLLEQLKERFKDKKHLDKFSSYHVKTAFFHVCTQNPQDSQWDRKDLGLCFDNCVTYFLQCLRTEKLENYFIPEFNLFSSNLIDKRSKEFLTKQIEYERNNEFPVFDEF

Turning to `CC(=O)N1Cc2cn3c(-c4cnc[nH]4)c(-c4nc(C(F)(F)F)n[nH]4)nc3nc2C1` [Example 68, 1-[12-(1H-imidazol-5-yl)-11-[3-(trifluoromethyl)-1H-1,2,4-triazol-5-yl]-1,5,8,10-tetraazatricyclo[7.3.0.0^3,^7]dodeca-2,7,9,11-tetraen-5-yl]ethan-1-one], the results for the IC50 against human CGAS (157-522) and with CGAS were 5.01 nM and 1260 nM, respectively.
On to `FC(F)(F)c1n[nH]c(-c2nc3ncc(C4CCCO4)cn3c2-c2cnc[nH]2)n1` (stereo not drawn) [Example 82, 5-[3-(1H-imidazol-5-yl)-6-(oxolan-2-yl)imidazo[1,2-a]pyrimidin-2-yl]-3-(trifluoromethyl)-1H-1,2,4-triazole], for which the IC50 against human CGAS (157-522) is 5.01 nM; in the assay with CGAS it was 200 nM.
In the case of `COCC(F)(F)c1ccn2c(-c3cnc[nH]3)c(-c3nc(C(F)(F)F)n[nH]3)nc2n1` [Example 19, 5-[7-(1,1-difluoro-2-methoxyethyl)-3-(1H-imidazol-5-yl)imidazo[1,2-a]pyrimidin-2-yl]-3-(trifluoromethyl)-1H-1,2,4-triazole], the IC50 on human CGAS (157-522) was 6.31 nM; with CGAS, 398 nM.
For `FC(F)(F)c1n[nH]c(-c2nc3nc4c(cn3c2-c2cnc[nH]2)CNC4)n1` [Example 63, 12-(1H-imidazol-5-yl)-11-[3-(trifluoromethyl)-1H-1,2,4-triazol-5-yl]-1,5,8,10-tetraazatricyclo[7.3.0.0^3,^7]dodeca-2,7,9,11-tetraene] the same measures were 6.31 nM and 794 nM.
Regarding `FC(F)c1n[nH]c(-c2nc3ncc(Cl)cn3c2-c2c[nH]cn2)n1` [Example 4, 5-[6-chloro-3-(1H-imidazol-4-yl)imidazo[1,2-a]pyrimidin-2-yl]-3-(difluoromethyl)-1H-1,2,4-triazole], the IC50 at human CGAS (157-522) was 3.98 nM; in the assay on CGAS, 63.1 nM.
Turning to `CC(C)(C)c1cnc2nc(-c3nc(C(F)(F)F)n[nH]3)c(-c3c[nH]cn3)n2c1` [Example 109, 5-[6-tert-butyl-3-(1H-imidazol-4-yl)imidazo[1,2-a]pyrimidin-2-yl]-3-(trifluoromethyl)-1H-1,2,4-triazole], the IC50 on human CGAS (157-522) was 5.01 nM; in the assay with CGAS it was 1260 nM.
For `FC(F)c1ccn2c(-c3cnc[nH]3)c(-c3nc(C(F)F)n[nH]3)nc2n1` [Example 8, 3-(difluoromethyl)-5-[7-(difluoromethyl)-3-(1H-imidazol-5-yl)imidazo[1,2-a]pyrimidin-2-yl]-1H-1,2,4-triazole] the same measures were 3.16 nM and 200 nM.
Turning to `CCCOc1cnc2nc(-c3nc(C(F)(F)F)n[nH]3)c(-c3cnc[nH]3)n2c1` [Example 154, 5-[3-(1H-imidazol-5-yl)-6-propoxyimidazo[1,2-a]pyrimidin-2-yl]-3-(trifluoromethyl)-1H-1,2,4-triazole], the IC50 at human CGAS (157-522) was 3.98 nM; in the assay on CGAS it was 501 nM.
The matching figures for `CS(=O)(=O)c1cnc2nc(-c3nc(C(F)(F)F)n[nH]3)c(-c3cnc[nH]3)n2c1` [Example 22, 5-[3-(1H-imidazol-5-yl)-6-methanesulfonylimidazo[1,2-a]pyrimidin-2-yl]-3-(trifluoromethyl)-1H-1,2,4-triazole]: 25.1 nM and 7940 nM.
On to `FC(F)c1cnc2nc(-c3nc(C(F)(F)F)n[nH]3)c(-c3c[nH]cn3)n2c1` [Example 120, 5-[6-(difluoromethyl)-3-(1H-imidazol-4-yl)imidazo[1,2-a]pyrimidin-2-yl]-3-(trifluoromethyl)-1H-1,2,4-triazole], for which the IC50 is 6.31 nM on human CGAS (157-522) and 631 nM in the assay on CGAS.
Regarding `OCc1cnc2nc(-c3nc(C(F)(F)F)n[nH]3)c(-c3cnc[nH]3)n2c1` [Example 61, [3-(1H-imidazol-5-yl)-2-[3-(trifluoromethyl)-1H-1,2,4-triazol-5-yl]imidazo[1,2-a]pyrimidin-6-yl]methanol], the IC50 is 12.6 nM against human CGAS (157-522) and 398 nM in the assay with CGAS.
Consider `FC(F)(F)c1n[nH]c(-c2nc3ncc(COCCC4CCOC4)cn3c2-c2cnc[nH]2)n1` (stereo not drawn) [Example 139, 5-[3-(1H-imidazol-5-yl)-6-{[2-(oxolan-3-yl)ethoxy]methyl}imidazo[1,2-a]pyrimidin-2-yl]-3-(trifluoromethyl)-1H-1,2,4-triazole], for which the figures for the IC50 at human CGAS (157-522) and in the assay on CGAS were 7.94 nM and 398 nM, respectively.
For the molecule `COc1cnc2nc(-c3nc(C(F)(F)F)n[nH]3)c(-c3cnc[nH]3)n2c1` [Example 58, 5-[3-(1H-imidazol-5-yl)-6-methoxyimidazo[1,2-a]pyrimidin-2-yl]-3-(trifluoromethyl)-1H-1,2,4-triazole], the results for the IC50 against human CGAS (157-522) and in the assay on CGAS were 10 nM and 316 nM, respectively.
On to `Fc1cn2c(-c3cnc[nH]3)c(-c3nc(C(F)(F)F)n[nH]3)nc2nc1C(F)(F)F` [Example 125, 5-[6-fluoro-3-(1H-imidazol-5-yl)-7-(trifluoromethyl)imidazo[1,2-a]pyrimidin-2-yl]-3-(trifluoromethyl)-1H-1,2,4-triazole], for which the IC50 on human CGAS (157-522) was 15.8 nM; in the assay with CGAS, 3160 nM.
Consider `FC(F)(F)c1n[nH]c(-c2nc3ncc(C4CCOC4)cn3c2-c2cnc[nH]2)n1` (stereo not drawn) [Example 66, 5-[3-(1H-imidazol-5-yl)-6-(oxolan-3-yl)imidazo[1,2-a]pyrimidin-2-yl]-3-(trifluoromethyl)-1H-1,2,4-triazole], for which the IC50 against human CGAS (157-522) was 2.51 nM; in the assay on CGAS, 316 nM.
Consider `O=S1(=O)CCc2nc3nc(-c4nc(C(F)(F)F)n[nH]4)c(-c4cnc[nH]4)n3cc2C1` [Example 104, 6-(1H-imidazol-5-yl)-5-[3-(trifluoromethyl)-1H-1,2,4-triazol-5-yl]-11λ^6-thia-2,4,7-triazatricyclo[7.4.0.0^3,^7]trideca-1,3,5,8-tetraene-11,11-dione], for which the IC50 against human CGAS (157-522) was 3.98 nM; with CGAS it was 6310 nM.
For `CC(NCc1ccn2c(-c3c[nH]cn3)c(-c3nc(C(F)(F)F)n[nH]3)nc2n1)C(F)(F)F` (stereo not drawn) [Example 118, {[3-(1H-imidazol-4-yl)-2-[3-(trifluoromethyl)-1H-1,2,4-triazol-5-yl]imidazo[1,2-a]pyrimidin-7-yl]methyl}(1,1,1-trifluoropropan-2-yl)amine], the IC50 at human CGAS (157-522) is 12.6 nM; in the assay with CGAS, 631 nM.
`COCc1cnc2nc(-c3nc(C(F)(F)F)n[nH]3)c(-c3cnc[nH]3)n2c1` [Example 69, 5-[3-(1H-imidazol-5-yl)-6-(methoxymethyl)imidazo[1,2-a]pyrimidin-2-yl]-3-(trifluoromethyl)-1H-1,2,4-triazole]: the IC50 at human CGAS (157-522) was 2.51 nM; in the assay with CGAS, 126 nM.
Take `COC(C)c1cnc2nc(-c3nc(C(F)(F)F)n[nH]3)c(-c3c[nH]cn3)n2c1` (stereo not drawn) [Example 165, 5-[3-(1H-imidazol-4-yl)-6-(1-methoxyethyl)imidazo[1,2-a]pyrimidin-2-yl]-3-(trifluoromethyl)-1H-1,2,4-triazole]: the IC50 against human CGAS (157-522) is 6.31 nM; in the assay with CGAS, 200 nM.
For `N#Cc1ccn2c(-c3c[nH]cn3)c(-c3nc(C(F)(F)F)n[nH]3)nc2n1` [Example 124, 3-(1H-imidazol-4-yl)-2-[3-(trifluoromethyl)-1H-1,2,4-triazol-5-yl]imidazo[1,2-a]pyrimidine-7-carbonitrile] the same measures were 6.31 nM and 158 nM.
Regarding `O=C(O)CCOC(=O)OCn1cnc(-c2c(-c3nc(C(F)(F)F)nn3COC(=O)OCCC(=O)O)nc3ncccn23)c1` [Example 31, 3-({[(4-{2-[1-({[(2-carboxyethoxy)carbonyl]oxy}methyl)-3-(trifluoromethyl)-1H-1,2,4-triazol-5-yl]imidazo[1,2-a]pyrimidin-3-yl}-1H-imidazol-1-yl)methoxy]carbonyl}oxy)propanoic acid, trifluoroacetic acid salt], the IC50 at human CGAS (157-522) is 2000 nM; in the assay with CGAS it was 5010 nM.
Consider `FC(F)(F)c1n[nH]c(-c2nc3nc4c(cn3c2-c2cnc[nH]2)COCC4)n1` [Example 71, 6-(1H-imidazol-5-yl)-5-[3-(trifluoromethyl)-1H-1,2,4-triazol-5-yl]-11-oxa-2,4,7-triazatricyclo[7.4.0.0^3,^7]trideca-1,3,5,8-tetraene], for which the IC50 at human CGAS (157-522) is 5.01 nM; with CGAS it was 126 nM.
For the molecule `CN1CCc2nc3nc(-c4nc(C(F)(F)F)n[nH]4)c(-c4cnc[nH]4)n3cc2C1` [Example 73, 6-(1H-imidazol-5-yl)-11-methyl-5-[3-(trifluoromethyl)-1H-1,2,4-triazol-5-yl]-2,4,7,11-tetraazatricyclo[7.4.0.0^3,^7]trideca-1,3,5,8-tetraene], the values for the IC50 against human CGAS (157-522) and in the assay on CGAS were 6.31 nM and 794 nM, respectively.
The matching figures for `FC(F)(F)COc1cnc2nc(-c3nc(C(F)(F)F)n[nH]3)c(-c3cnc[nH]3)n2c1` [Example 160, 5-[3-(1H-imidazol-5-yl)-6-(2,2,2-trifluoroethoxy)imidazo[1,2-a]pyrimidin-2-yl]-3-(trifluoromethyl)-1H-1,2,4-triazole]: 5.01 nM and 398 nM.
Turning to `FC(F)(F)c1n[nH]c(-c2nc3nc4c(cn3c2-c2cnc[nH]2)CNCC4(F)F)n1` [Example 83, 13,13-difluoro-6-(1H-imidazol-5-yl)-5-[3-(trifluoromethyl)-1H-1,2,4-triazol-5-yl]-2,4,7,11-tetraazatricyclo[7.4.0.0^3,^7]trideca-1,3,5,8-tetraene], the figures for the IC50 on human CGAS (157-522) and with CGAS were 7.94 nM and 316 nM, respectively.
`FC(F)(F)c1n[nH]c(-c2nc3ncc(CN4CCOCC4)cn3c2-c2c[nH]cn2)n1` [Example 70, 4-{[3-(1H-imidazol-4-yl)-2-[3-(trifluoromethyl)-1H-1,2,4-triazol-5-yl]imidazo[1,2-a]pyrimidin-6-yl]methyl}morpholine]: the results for the IC50 on human CGAS (157-522) and in the assay with CGAS were 3.16 nM and 2000 nM, respectively.
Take `FC(F)(F)c1n[nH]c(-c2nc3nc4c(cn3c2-c2cn[nH]c2)COCC4)n1` [Example 72, 6-(1H-pyrazol-4-yl)-5-[3-(trifluoromethyl)-1H-1,2,4-triazol-5-yl]-11-oxa-2,4,7-triazatricyclo[7.4.0.0^3,^7]trideca-1,3,5,8-tetraene]: the IC50 was 12.6 nM against human CGAS (157-522) and 15800 nM with CGAS.
